Assay results: patent publication US20090312406A1, “COUMARIN COMPOUNDS AND THEIR USE FOR TREATING VIRAL INFECTION” (priority 2008, published 2009)
Like-named read-outs stand apart in the source and are kept apart here.

How the values were obtained:
[1] = system: Influenza A/WSN/33 (H1N1) virus; experiment: In vitro anti-influenza virus assay (neutralization test), cytopathic effect on MDCK cells; type: cell-based
Method: (§1) Anti-influenza activities of the coumarin compounds were evaluated by measuring the ability of a test compound to inhibit the cytopathic effect induced by an influenza virus on MDCK cells. The 96-well tissue culture plates were seeded with 200 μL of MDCK cells at a concentration of 1.1×10^5 cells/mL in DMEM with 10% fetal bovine serum (FBS). The plates were incubated for 24-30 h at 37° C. and were used at about 90% confluency. Influenza A/WSN/33 (H1N1) virus (100 TCID50) was added to the cells and incubated at 35° C. for 1 h. After adsorption, the infected cell plates were overlaid with 50 μL of DMEM plus 2% FBS and a test compound with different concentrations. The plate was incubated at 35° C. for 72 h. At the end of incubation, the plates were fixed by the addition of 100 μL of 4% formaldehyde for 1 h at room temperature. After the removal of formaldehyde, the plates were stained with 0.1% crystal violet for 15 min at room temperature. The plates were washed and dried, and the density of the well was measured at 570 nm. The concentration required for a test compound to reduce the virus-induced cytopathic effect (CPE) by 50% relative to the virus control was expressed as IC50.
(§2) Compounds 1 and 95 were also tested on various influenza virus strains. Amantadine or Relenza was also tested for comparison. IC50 is defined as the concentration required for a test compound to reduce the virus-induced cytopathic effect (CPE) by 50% relative to the virus control.

[2] = system: herpes simplex virus type 1; experiment: In vitro assessment of anti-HSV activity, plaque reduction assay in Vero cells (Example 8); type: cell-based; settings: for SI, selectivity index = CC50/EC50: CC50/EC50, HSV-1; for EC50: Human alphaherpesvirus 1, herpes simplex virus type 1, Vero cells, plaque reduction, 72 h, read-out: EC50 (μM), 50% effective concentration
Method: Anti-HSV activities of compounds described herein were evaluated by performing a plaque reduction assay using monolayer cultures of Vero cells in 24-well culture plates. A cell monolayer was infected with herpes simplex virus type 1 (50 pfu/well) and incubated at 37° C. with 5% CO2 for 1 h. The infected cell monolayer was then washed three times with PBS and overlaid with a solution (maintenance medium containing 1% methylcellulose and various concentrations of a test compound). After 72 h of incubation at 37° C., the cell monolayer was fixed with 10% formalin and stained with 1% crystal violet. […] The minimal concentration of a compound required to reduce 50% of plaque numbers (EC50) was calculated by regression analysis of the dose-response curves generated from the plaque assay.

[3] = Cytotoxicity (CC50) of the compounds tested in the anti-HSV assay; type: cell-based; settings: African green monkey, Vero cells; Table 5; read-out: CC50 (μM), 50% cytotoxicity concentration
HIV-1 = experiment: Inhibition of HIV-1 replication in peripheral blood mononuclear cells, viral RNA by real-time PCR; settings: Human immunodeficiency virus 1, PBMC
Method: Equal amounts of wild-type and mutant viruses were used to infect 5×10^4 peripheral blood mononuclear cells (PBMC) in 1.5 mL medium containing DMSO or various concentrations of a test compound. A half-milliliter of the culture medium was collected from each culture at days 3, 5, and 7. Viral RNA was extracted from the collected culture supernatants and the viral titers (copies/mL) were determined by real-time PCR. The percentage of inhibition was calculated as [100−(VD/VC)]×100%, where VD and VC refer to the virus titers in the presence and absence of the test compound, respectively.

[4] = system: Influenza A/TW/785/05 (H1N1); experiment: Anti-influenza CPE neutralization test on MDCK cells; type: cell-based; settings: Influenza A virus
Method: as §1, §2

[5] = system: Influenza A/TW/83/05 (H3N2); experiment: as above; type: cell-based; settings: Influenza A virus
Method: as §1, §2

[6] = system: Influenza A/Udorn/72 (H3N2); experiment: as above; type: cell-based; settings: Influenza A virus
Method: as §1, §2

Influenza B/TW/70325/05 = experiment: as above; type: cell-based; settings: Influenza B virus, Influenza B/TW/70325/05, CPE
Method: as §1, §2

Influenza B/TW/710/05 = experiment: as above; type: cell-based; settings: Influenza B virus, Influenza B/TW/710/05, CPE
Method: as §1, §2

Influenza B/TW/99/07 = experiment: as above; type: cell-based; settings: Influenza B virus, Influenza B/TW/99/07, CPE
Method: as §1, §2

Enterovirus 71 (4643) = experiment: In vitro EV 71 neutralization assay, cytopathic effect on RD cells; type: cell-based; settings: Enterovirus A
Method: (§3) This assay measured the ability of a test compound to inhibit the cytopathic effect induced by a picornavirus (EV71, Coxsackie Virus B3, or human rhinovirus 2) on RD cells. The method used for this assay is described in Chang et al., J Med Chem, 2005, 48(10), 3522-3535. More specifically, 96-well tissue culture plates were seeded with 200 μL of RD cells at a concentration of 3×10^5 cells/mL in DMEM with 10% FBS. The plates were incubated for 24-30 h at 37° C. and were used at about 90% confluency. Virus (100 TCID50) mixed with different concentrations of a test compound was added to the cells and incubated at 37° C. for 1 h. After adsorption, the infected cell plates were overlaid with 50 μL of DMEM plus 5% FBS and 2% DMSO. The plate was wrapped in Parafilm and incubated at 37° C. for 64 h. At the end of incubation, the plates were fixed by the addition of 100 μL of 0.5% glutaraldehyde for 1 h at room temperature. After the removal of glutaraldehyde, the plates were stained with 0.1% crystal violet for 15 min at room temperature. The plates were washed and dried, and the density of the well was measured at 570 nm. The concentration required for a test compound to reduce the virus-induced cytopathic effect (CPE) by 50% relative to the virus control is expressed as IC50.

Coxsackie B virus 3 = experiment: In vitro Coxsackie Virus B3 neutralization assay, cytopathic effect on RD cells; type: cell-based; settings: Coxsackie B virus 3, RD cells, CPE
Method: as §3

Human rhinovirus 2 = experiment: In vitro human rhinovirus 2 neutralization assay, cytopathic effect on RD cells; type: cell-based; settings: Rhinovirus A
Method: as §3

HSV-1 = experiment: In vitro HSV-1 plaque reduction assay in Vero cells (Example 5); type: cell-based; settings: Human alphaherpesvirus 1; HSV-1, Vero cells, 72 h; read-out: EC50 (concentration reducing 50% of plaque numbers)
Method: The method used for this assay is described in Su et al., Antiviral Res., 2008, 79(1), 62-70.
Vero cells were seeded onto a 96-well culture plate at a concentration of 10^4 cells per well one day before infection. Next day, medium was removed and 10 plaque forming unit (pfu) HSV-1 suspension per well were added and incubated at 37° C. with 5% CO2 for 1 h. The infected cell monolayer was then washed with phosphate buffered saline (PBS) and cultured in maintenance medium containing 1 μM of compounds. After 72 h of incubation at 37° C., cell monolayer was fixed with 10% formalin and stained with 1% crystal violet.
Plaque assays were performed with monolayer cultures of Vero cells in 24-well culture plates. For plaque reduction assay, cell monolayer was infected with virus (50 pfu/well) and incubated at 37° C. with 5% CO2 for 1 h. The infected cell monolayer was then washed three times with PBS and overlaid with overlapping solution (maintenance medium containing 1% methylcellulose and various concentrations of indicated compounds). After 72 h of incubation at 37° C., cell monolayer was fixed with 10% formalin and stained with 1% crystal violet. […] The minimal concentration of compounds required to reduce 50% of plaque numbers (EC50) was calculated by regression analysis of the dose-response curves generated from plaque assays.

EBV = experiment: In vitro EBV assay, EBV reactivation in NA cells by anti-EBV-EAD immunofluorescence; type: cell-based, Epstein-Barr virus (EBV); settings: human gammaherpesvirus 4; EBV reactivation by TPA/SB in NA cells, compound added 24 h before; read-out: EC50 (concentration reducing 50% of virus replication numbers)
Method: The method used for this assay is described in Chang et al., J Virol, 1999, 73, 8857-8866 and Tsai et al., J Virol Methods, 1991, 33, 47-52.
To suppress EBV reactivation, a test compound was added to the NA cell culture medium at indicated final concentration 24 h prior to 12-o-tetradecanoylphorbol-13-acetate (TPA)/sodium n-butyrate (SB) treatment. After treatment, the cells were fixed and assayed by anti-EBV-EAD immunofluorescence for detection of EBV reactivation. […] NA cells were subjected to treatment with the test compound 24 h prior to the addition of TPA/SB. […] Cells were stained with anti-EBV EAD antibody. […] The minimal concentration of the test compound required to reduce 50% of virus replication numbers (EC50) was calculated from regression analysis of the dose-response curves obtained from anti-EBV-EAD immunofluorescence.

[7] = system: Influenza A/TW/141/04 (H1N1); experiment: Anti-influenza CPE neutralization test on MDCK cells; type: cell-based; settings: Influenza A virus
Method: as §1, §2

[8] = system: Influenza A/TW/3446/04 (H3N2); experiment: as above; type: cell-based; settings: Influenza A virus
Method: as §1, §2

[9] = MDCK cells, 72 h, lower bound (10 nM), upper in μM, read-out: IC50 (concentration reducing virus-induced cytopathic effect by 50%)
[10] = 72 h, read-out: Inhibition (%) Day 3
[11] = 120 h, read-out: Inhibition (%) Day 5
[12] = 168 h, read-out: Inhibition (%) Day 7
[13] = MDCK, CPE, Table 2, read-out: IC50
[14] = Enterovirus 71 (4643), RD cells, CPE, read-out: IC50
[15] = Human rhinovirus 2, RD cells, CPE, read-out: IC50

SMILES: Cc1cc(=O)oc2c1ccc1oc(C(=O)c3ccccc3)c(-c3ccc(F)cc3)c12 [Compound 134]
- IC50 [1, 9]: 10 to 999 nM
- SI, selectivity index = CC50/EC50 [2]: >3095.975
- EC50 [2]: 0.0323 µM
- CC50 [3]: > 100 µM
- inhibition at 0.1 µM (HIV-1; [10]): 61%
- inhibition at 0.1 µM (HIV-1; [11]): 91%
- inhibition at 0.1 µM (HIV-1; [12]): 96%

SMILES: Cc1cccc(-c2c(C(=O)c3ccccc3)oc3ccc4c(C)cc(=O)oc4c23)c1 [Compound 141]
- IC50 [1, 9]: 10 to 999 nM
- SI, selectivity index = CC50/EC50 [2]: >25641.03
- EC50 [2]: 0.0039 µM
- CC50 [3]: > 100 µM
- inhibition at 0.1 µM (HIV-1; [10]): 19%
- inhibition at 0.1 µM (HIV-1; [11]): 71%
- inhibition at 0.1 µM (HIV-1; [12]): 97%

SMILES: Cc1cc(=O)oc2c1ccc1oc(C(=O)c3ccccc3)c(-c3ccccc3)c12 [Compound 1, 8-benzoyl-4-methyl-9-phenyl-furo[2,3-h]chromen-2-one]
- IC50 [1, 9]: 10 to 999 nM
- IC50 [1, 13]: 119 ± 43 nM
- IC50 [4]: 52 ± 1 nM
- IC50 [5]: 57 ± 6 nM
- IC50 [6]: 347 ± 188 nM
- IC50 (Influenza B/TW/70325/05): 67 ± 2 nM
- IC50 (Influenza B/TW/710/05): 102 ± 20 nM
- IC50 (Influenza B/TW/99/07): 89 ± 14 nM
- IC50 (Enterovirus 71 (4643); [14]): 2 ± 1 nM
- IC50 (Coxsackie B virus 3): 5 ± 1 nM
- IC50 (Human rhinovirus 2; [15]): 12 ± 1 nM
- EC50 (HSV-1): ~500 nM
- EC50 (EBV): < 500 nM
- inhibition at 0.1 µM (HIV-1; [10]): 2%
- inhibition at 0.1 µM (HIV-1; [11]): 82%
- inhibition at 0.1 µM (HIV-1; [12]): 91%

SMILES: Cc1cn([C@H]2C[C@H](N=[N+]=[N-])[C@@H](CO)O2)c(=O)[nH]c1=O [AZT, zidovudine, reference compound]
- inhibition at 0.05 µM (HIV-1; [10]): 6%
- inhibition at 0.05 µM (HIV-1; [11]): 71%
- inhibition at 0.05 µM (HIV-1; [12]): 88%

SMILES: CC(=O)N[C@H]1[C@H]([C@H](O)[C@H](O)CO)OC(C(=O)O)=C[C@@H]1N=C(N)N [Relenza, Zanamivir, reference compound]
- IC50 [1, 13]: 62 ± 18 nM
- IC50 [7]: 350 ± 140 nM
- IC50 [8]: 30 ± 10 nM
- IC50 [4]: 1060 ± 982 nM
- IC50 [5]: 918 ± 26 nM
- IC50 [6]: 670 ± 232 nM
- IC50 (Influenza B/TW/70325/05): 20 ± 10 nM
- IC50 (Influenza B/TW/710/05): 30 ± 19 nM
- IC50 (Influenza B/TW/99/07): 99 ± 9 nM
- IC50 (Enterovirus 71 (4643); [14]): > 25000 nM
- IC50 (Coxsackie B virus 3): > 25000 nM
- IC50 (Human rhinovirus 2; [15]): > 25000 nM

SMILES: Cc1cc(=O)oc2c1ccc1oc(C(=O)c3cccs3)c(-c3ccccc3)c12 [Compound 95]
- IC50 [1, 9]: 10 to 999 nM
- IC50 [1, 13]: 70 ± 10 nM
- IC50 [7]: 90 ± 10 nM
- IC50 [8]: 150 ± 10 nM
- IC50 (Influenza B/TW/70325/05): 90 ± 10 nM
- IC50 (Influenza B/TW/710/05): 90 ± 10 nM
- IC50 (Influenza B/TW/99/07): 40 ± 10 nM
- SI, selectivity index = CC50/EC50 [2]: >1666.666
- EC50 [2]: 0.06 µM
- CC50 [3]: > 100 µM
- inhibition at 0.1 µM (HIV-1; [10]): 42%
- inhibition at 0.1 µM (HIV-1; [11]): 89%
- inhibition at 0.1 µM (HIV-1; [12]): 99%

SMILES: NC12CC3CC(CC(C3)C1)C2 [Amantadine]
- IC50 [1, 13]: > 25000 nM
- IC50 [4]: 382 ± 238 nM
- IC50 [5]: > 25000 nM
- IC50 [6]: 980 ± 147 nM
- IC50 (Influenza B/TW/70325/05): > 25000 nM
- IC50 (Influenza B/TW/710/05): > 25000 nM
- IC50 (Influenza B/TW/99/07): > 25000 nM
- IC50 (Enterovirus 71 (4643); RD): > 25000 nM
- IC50 (Coxsackie B virus 3): > 25000 nM
- IC50 (Human rhinovirus 2; RD): > 25000 nM
